# In patent publication US20040006127A1, “Activation of the cystic fibrosis transmembrane conductance regulator chloride channel” (priority 2000, published 2004):
# Entries after “also recorded” stand apart in the source; their conditions may differ.
# What was measured:
# wild-type human CFTR [1] = biological target: T1, wild-type human CFTR (Homo sapiens, UniProt P13569); assay: CFTR Cl- currents in excised inside-out membrane patches from C127 cells (time course, I-V studies); assay type: biochemical; conditions: for effect on channel activity at positive voltages: phloxine B 40 μM; for concentration that maximally stimulated channel activity: excised membrane patches
# T1 construct: expressed in transfected cells
# Protocol: For electrophysiological experiments, we used mouse mammary epithelial cells (C127 cells) stably expressing wild-type human CFTR or ΔF508, the most common CF-associated mutation (11). C127 cells expressing wild-type CFTR were cultured as previously described (12). C127 cells expressing ΔF508 were cultured at 28° C., to overcome the processing defect of ΔF508 and promote bs delivery to the cell membrane (13). Cells were seeded onto glass coverslips and used within either 48 h (wild-type CFTR) or 1 week (ΔF508).
# CFTR Cl^− channels were recorded in excised inside-out membrane patches using an Axopatch 200A patch-clamp amplifier (Axon Instruments Inc., Foster City, USA) and pCLAMP data acquisition and analysis software (version 6.03, Axon Instruments Inc.) as previously described (12,14). The established sign convention was used throughout; currents produced by positive charge moving from intra- to extracellular solutions (anions moving in the opposite direction) are shown as positive currents.
# The pipette (extracellular) solution contained (in mM): 140 N-methyl-D-glucamine (NMDG), 140 aspartic acid, 5 CaCl2, 2 MgSO4, and 10 N-tris[hydroxymethyl]methyl-2-aminoethanesulphonic acid (Tes), pH 7.3 with Tris ([Cl^−], 10 mM). The bath (intracellular) solution contained (in mM): 140 NMDG, 3 MgCl2, 1 ethylene glycol-bis(β-aminoethylether)-N,N,N′,N′-tetraacetic acid caesium salt (CsEGTA), and 10 Tes, pH 7.3 with HCl, ([Cl^−], 147 mM; [Ca^2+]free, <10^−8 M). All experiments were conducted at 37° C.
# After excision of membrane patches from C127 cells. CFTR Cl^− channels were activated by the addition of the catalytic subunit of protein kinase A (PKA; 75 nM) and ATP (1.0 mM) to the intracellular solution within 5 min of patch excision. […] PKA was maintained in the intracellular solution for the duration of experiments. Voltage was −50 mV. […] The number of channels per patch was determined from the maximum number of simultaneous channel openings observed during the course of an experiment, as previously described (12). […] To investigate whether modulation of CFTR by fluorescein derivatives was voltage dependent, we used a voltage ramp protocol. Macroscopic current-voltage (I-V) relationships were obtained. In the absence and presence of fluorescein derivatives by averaging currents generated by 15-30 ramps of voltage, each of 2 s duration; holding voltage was −50 mV. Basal currents recorded in the absence of PKA and ATP were subtracted from those recorded in the absence and presence of fluorescein derivatives to determine the effect of fluorescein derivatives on CFTR Cl^− currents,
# CFTR Cl^− currents were initially recorded on digital audiotape using a digital tape recorder (Biologic Scientific Instruments, model DTR-1204; lntracel Ltd, Royston, UK) at a bandwidth of 10 kHz. On playback, records were filtered with an eight-pole Bessel filter (Frequency Devices, model 902LPF2: Scensys Ltd, Aylesbury, UK) at a corner frequency of 500 Hz and acquired using a Digidata 1200 interface (Axon Instruments Inc.) and pCLAMP at sampling rates of either 2.5 kHz (time course studies) or 5.0 kHz (single-channel studies).
# In time course studies, each point is the average current for a 4 s period with data points collected continuously, no data were collected while solutions were changed. Average current (I) for a specific intervention was determined as the average of all the data points collected during the intervention. The relationship between drug concentration and CFTR inhibition was fitted to the Hill equation:
# IDrug/IControl=1/{1+([Drug]/Ki)^n}, (1)
# where [Drug] is the concentration of drug, IDrug/IControl is the fractional current at the indicated drug concentration relative to that in the same solution in the absence of added drug, Ki is the drug concentration causing half-maximal inhibition, and n is the slope factor (Hill coefficient). Mean data were fitted to a linear form of equation (1) using linear least-squares regression to yield Ki and n values.
# wild-type human CFTR [2] = biological target: T1, wild-type human CFTR; assay: Single-channel recording of CFTR Cl- channels in excised inside-out membrane patches from C127 cells; assay type: biochemical
# ΔF508 CFTR = biological target: T2, ΔF508 CFTR (Homo sapiens, UniProt P13569, DEL508-508); assay: Single-channel recording of ΔF508 CFTR Cl- channels in excised patches from C127 cells grown at 28° C.; assay type: biochemical; conditions: 1 μM
# T2 construct: expressed in transfected cells
# [3] = biological target: T3, endogenous CFTR Cl- channels in Type I MDCK cells (Canis lupus familiaris, UniProt Q5U820); assay: cAMP-stimulated iodide efflux from Type I MDCK cells; assay type: cell-based, canine
# T3 construct: Type I MDCK cells are kidney epithelial cells that endogenously express the CFTR Cl^− channel; endogenous in cells; host or cells: Type I MDCK cells
# Protocol: For iodide efflux experiments, we used Type I Mardin-Darby canine kidney (MDCK) cells. MDCK cells were cultured in MDCK media (a 1:1 mixture of Dulbecco's Modified Eagle Medium (DMEM) and Ham's F-12 nutrient medium supplemented with 10% fetal bovine serum, 100 U ml^1 penicillin, and […] ml^−streptomycin; all from Life Technologies Ltd, Paisley, UK) at 37° C. in a humidified atmosphere of 5% CO2. Cells were seeded onto 60 mm plastic culture dishes and used 72-96 h later.
# Type I MDCK cells (≧90% confluent) were incubated for 1 h in a loading buffer containing (mM): 136 Nal, 3 KNO3, 2 Ca(NO3)2, 11 glucose, and 20 Hepes, adjusted to pH 7.4 with NaOH. […] The efflux buffer was changed at 1 min intervals over the duration of the experiment, which typically lasted 18 min. Four minutes after anion substitution, cells were exposed to agonists for 4 min. The amount of iodide in each 2.5 ml sample of efflux buffer was determined using an iodide-selective electrode (Russell pH Ltd. Auchtermuchty, UK). Cells were loaded and experiments performed at room temperature (23° C.).
# Type I MDCK cells are kidney epithelial cells that endogenously express the CFTR Cl^− channel (20).
# Nitrate was substituted for iodide in the bathing medium at t=−4 min and iodide efflux was monitored at 1 min intervals, for the duration of the experiment.
# KATP currents = biological target: T4, KATP currents (Homo sapiens, UniProt Q09428+Q14654); conditions: added to the extracellular solution; de Weille et al. (10); cited from earlier work
# T4 construct: host or cells: pancreatic β-cells
# [4] = biological target: wild-type CFTR Cl- channels (Homo sapiens, UniProt P13569); conditions: reported by Wang et al. (18); cited from earlier work
# [5] = eosin Y 100 μM, symmetrical 147 mM Cl-, ATP 1 mM
# [6] = 1 μM, ATP 0.3 mM, PKA 75 nM, -50 mV
# T1 sequence (P13569 whole entry): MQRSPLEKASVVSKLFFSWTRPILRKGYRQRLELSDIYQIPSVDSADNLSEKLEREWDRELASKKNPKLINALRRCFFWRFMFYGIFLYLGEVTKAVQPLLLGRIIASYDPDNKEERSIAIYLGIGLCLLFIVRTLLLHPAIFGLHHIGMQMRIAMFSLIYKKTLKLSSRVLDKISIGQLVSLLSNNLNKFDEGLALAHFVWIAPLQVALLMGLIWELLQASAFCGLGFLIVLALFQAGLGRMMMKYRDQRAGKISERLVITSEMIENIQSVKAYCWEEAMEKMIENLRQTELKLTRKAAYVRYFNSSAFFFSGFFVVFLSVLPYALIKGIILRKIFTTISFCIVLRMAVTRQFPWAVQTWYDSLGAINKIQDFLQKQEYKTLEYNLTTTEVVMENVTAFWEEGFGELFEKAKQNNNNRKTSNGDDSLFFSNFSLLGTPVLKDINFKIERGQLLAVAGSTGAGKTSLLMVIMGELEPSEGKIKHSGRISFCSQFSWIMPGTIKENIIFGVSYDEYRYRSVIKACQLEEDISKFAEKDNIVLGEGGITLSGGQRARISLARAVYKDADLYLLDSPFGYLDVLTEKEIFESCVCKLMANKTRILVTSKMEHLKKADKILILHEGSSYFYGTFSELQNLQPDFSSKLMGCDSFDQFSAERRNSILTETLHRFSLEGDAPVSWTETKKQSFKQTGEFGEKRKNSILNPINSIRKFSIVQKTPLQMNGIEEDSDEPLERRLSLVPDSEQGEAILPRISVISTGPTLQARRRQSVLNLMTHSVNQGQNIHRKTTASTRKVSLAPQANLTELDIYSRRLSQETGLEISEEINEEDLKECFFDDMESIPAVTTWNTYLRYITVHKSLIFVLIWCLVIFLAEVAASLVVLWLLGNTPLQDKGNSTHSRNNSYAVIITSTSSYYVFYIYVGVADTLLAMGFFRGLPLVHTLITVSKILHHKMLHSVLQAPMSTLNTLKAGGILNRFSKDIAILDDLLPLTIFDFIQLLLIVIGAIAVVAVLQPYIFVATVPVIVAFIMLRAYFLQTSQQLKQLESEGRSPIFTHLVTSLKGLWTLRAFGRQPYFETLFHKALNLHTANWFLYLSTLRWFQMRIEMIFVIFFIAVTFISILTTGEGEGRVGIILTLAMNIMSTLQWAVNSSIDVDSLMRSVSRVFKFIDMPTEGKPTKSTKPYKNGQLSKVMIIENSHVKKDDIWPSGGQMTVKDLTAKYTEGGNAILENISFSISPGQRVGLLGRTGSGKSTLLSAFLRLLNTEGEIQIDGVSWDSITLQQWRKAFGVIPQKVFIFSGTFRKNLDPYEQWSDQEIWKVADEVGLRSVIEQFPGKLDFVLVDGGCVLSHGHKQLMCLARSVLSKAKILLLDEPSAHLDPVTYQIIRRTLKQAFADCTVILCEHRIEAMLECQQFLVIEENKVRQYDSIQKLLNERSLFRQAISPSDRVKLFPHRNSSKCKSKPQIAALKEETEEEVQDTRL
# T2 sequence (P13569 with tags, fused parts or gaps DEL508-508): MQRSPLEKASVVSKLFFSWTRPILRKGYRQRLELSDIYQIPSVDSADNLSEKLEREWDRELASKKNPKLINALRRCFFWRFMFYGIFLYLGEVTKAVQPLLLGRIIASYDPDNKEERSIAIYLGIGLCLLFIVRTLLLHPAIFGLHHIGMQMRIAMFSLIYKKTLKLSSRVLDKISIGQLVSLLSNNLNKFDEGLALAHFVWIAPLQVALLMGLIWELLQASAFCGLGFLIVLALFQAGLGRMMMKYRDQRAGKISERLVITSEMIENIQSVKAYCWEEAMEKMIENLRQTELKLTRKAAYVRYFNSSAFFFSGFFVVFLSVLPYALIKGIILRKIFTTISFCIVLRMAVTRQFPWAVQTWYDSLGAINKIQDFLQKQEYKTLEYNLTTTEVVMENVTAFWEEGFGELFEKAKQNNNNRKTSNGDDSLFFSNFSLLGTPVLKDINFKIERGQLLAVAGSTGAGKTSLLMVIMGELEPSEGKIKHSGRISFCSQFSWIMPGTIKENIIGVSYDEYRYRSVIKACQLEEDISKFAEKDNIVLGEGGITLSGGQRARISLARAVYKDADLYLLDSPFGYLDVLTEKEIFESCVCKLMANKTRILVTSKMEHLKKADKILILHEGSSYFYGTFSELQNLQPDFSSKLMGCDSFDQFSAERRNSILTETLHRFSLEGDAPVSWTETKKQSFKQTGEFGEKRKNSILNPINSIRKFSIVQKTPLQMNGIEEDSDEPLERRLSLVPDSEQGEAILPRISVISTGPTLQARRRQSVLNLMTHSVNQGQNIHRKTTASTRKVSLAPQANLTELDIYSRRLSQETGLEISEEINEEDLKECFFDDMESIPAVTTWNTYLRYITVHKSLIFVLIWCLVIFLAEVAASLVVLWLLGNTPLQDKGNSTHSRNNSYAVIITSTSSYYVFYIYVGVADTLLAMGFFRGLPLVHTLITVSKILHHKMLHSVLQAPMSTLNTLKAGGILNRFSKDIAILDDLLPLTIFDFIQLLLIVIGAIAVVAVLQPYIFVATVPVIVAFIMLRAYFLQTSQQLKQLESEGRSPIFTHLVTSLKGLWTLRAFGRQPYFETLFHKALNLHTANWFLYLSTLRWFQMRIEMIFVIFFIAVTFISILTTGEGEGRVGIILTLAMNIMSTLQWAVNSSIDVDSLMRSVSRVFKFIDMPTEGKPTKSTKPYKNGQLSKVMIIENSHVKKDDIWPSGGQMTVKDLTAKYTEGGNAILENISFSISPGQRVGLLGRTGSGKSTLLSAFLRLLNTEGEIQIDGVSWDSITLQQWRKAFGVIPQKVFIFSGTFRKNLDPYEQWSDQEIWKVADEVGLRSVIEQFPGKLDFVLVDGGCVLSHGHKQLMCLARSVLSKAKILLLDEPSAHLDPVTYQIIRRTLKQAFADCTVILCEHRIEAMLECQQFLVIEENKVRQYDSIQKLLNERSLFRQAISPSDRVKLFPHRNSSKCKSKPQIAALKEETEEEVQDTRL
# T3 sequence (Q5U820 whole entry): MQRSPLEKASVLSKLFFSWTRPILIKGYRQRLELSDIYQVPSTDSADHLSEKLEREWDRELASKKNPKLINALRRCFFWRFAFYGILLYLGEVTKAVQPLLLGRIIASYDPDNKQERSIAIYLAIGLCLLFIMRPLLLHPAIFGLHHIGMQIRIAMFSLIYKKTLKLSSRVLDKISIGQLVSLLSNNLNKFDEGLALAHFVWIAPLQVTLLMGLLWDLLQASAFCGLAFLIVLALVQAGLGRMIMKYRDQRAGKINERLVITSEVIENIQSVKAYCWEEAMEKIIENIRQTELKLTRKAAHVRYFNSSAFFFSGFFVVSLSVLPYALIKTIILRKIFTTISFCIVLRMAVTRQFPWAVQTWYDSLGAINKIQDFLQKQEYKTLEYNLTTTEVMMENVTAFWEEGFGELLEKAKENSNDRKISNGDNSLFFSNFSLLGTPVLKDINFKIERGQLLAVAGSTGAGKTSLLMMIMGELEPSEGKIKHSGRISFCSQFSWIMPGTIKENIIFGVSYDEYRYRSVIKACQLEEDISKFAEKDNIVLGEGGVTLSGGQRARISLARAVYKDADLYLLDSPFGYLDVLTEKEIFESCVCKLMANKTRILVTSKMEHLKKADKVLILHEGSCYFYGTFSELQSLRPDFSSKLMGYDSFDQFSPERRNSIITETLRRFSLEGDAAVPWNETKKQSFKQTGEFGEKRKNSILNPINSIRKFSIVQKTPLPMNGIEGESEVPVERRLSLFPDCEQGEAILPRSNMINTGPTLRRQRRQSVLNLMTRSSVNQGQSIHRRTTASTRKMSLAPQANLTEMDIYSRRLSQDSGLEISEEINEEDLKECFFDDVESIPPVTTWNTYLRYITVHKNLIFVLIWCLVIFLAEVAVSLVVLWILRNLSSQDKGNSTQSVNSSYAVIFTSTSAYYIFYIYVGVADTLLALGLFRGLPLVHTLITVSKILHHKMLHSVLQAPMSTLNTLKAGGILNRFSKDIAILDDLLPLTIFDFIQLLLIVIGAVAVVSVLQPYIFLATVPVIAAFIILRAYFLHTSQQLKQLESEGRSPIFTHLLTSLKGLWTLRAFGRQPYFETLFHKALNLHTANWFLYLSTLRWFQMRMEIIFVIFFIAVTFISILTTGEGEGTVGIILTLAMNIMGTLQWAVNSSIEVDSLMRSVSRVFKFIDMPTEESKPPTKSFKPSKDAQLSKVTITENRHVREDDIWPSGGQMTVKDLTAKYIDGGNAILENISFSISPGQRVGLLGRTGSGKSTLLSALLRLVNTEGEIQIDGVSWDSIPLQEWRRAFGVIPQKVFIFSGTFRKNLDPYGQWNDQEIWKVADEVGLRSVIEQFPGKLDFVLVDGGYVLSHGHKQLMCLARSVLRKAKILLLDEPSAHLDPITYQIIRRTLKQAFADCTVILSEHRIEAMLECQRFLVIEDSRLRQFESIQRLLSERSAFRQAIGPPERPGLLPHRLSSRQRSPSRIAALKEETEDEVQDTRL
# Chain of wild-type CFTR Cl- channels (P13569 whole entry): as the sequence (P13569 whole entry) above
smiles,measurement,setting,value
O=C(O)c1c(Cl)c(Cl)c(Cl)c(Cl)c1-c1c2cc(Br)c(=O)c(Br)c-2oc2c(Br)c(O)c(Br)cc12 [phloxine B],Ki,wild-type human CFTR [1],17 µM
same,reversibility of modulation of CFTR,wild-type human CFTR [1],partially reversible
same,"effect on CFTR Cl- currents (concentration-response, FIG. 3)",wild-type human CFTR [1]; -50 mV,stimulated and inhibited
same,n (Hill coefficient) of current inhibition,wild-type human CFTR [1]; -50 mV,2
same,concentrations causing concentration-dependent decrease in CFTR Cl- current,"wild-type human CFTR [1]; ATP 0.3 mM, PKA 75 nM, -50 mV",20 to 50 µM
same,concentrations that stimulated CFTR Cl- currents,"wild-type human CFTR [1]; ATP 0.3 mM, PKA 75 nM, -50 mV",1 to 5 µM
same,effect on the activity of CFTR Cl- channels,wild-type human CFTR [1]; added to intracellular solution in the absence of either ATP or PKA,without effect
same,effect on channel activity at positive voltages,wild-type human CFTR [1]; [5],"relieve channel block by phloxine B (40 μM), but do not stimulate channel activity"
same,concentration that maximally stimulated channel activity,wild-type human CFTR [1],5 µM
same,open probability (Po),wild-type human CFTR [2]; [6],large increase in Po
same,single-channel current amplitude (i),wild-type human CFTR [2]; [6],"small, but significant (P<0.05), reduction"
same,interburst interval,"wild-type human CFTR [2]; 1 μM, single active channel",no change; also recorded: without effect
same,mean burst duration,"wild-type human CFTR [2]; 1 μM, single active channel",large increase in the duration of bursts; also recorded: significantly increased
same,Po in the presence of ADP,"wild-type human CFTR [2]; ADP 0.3 mM + phloxine B 1 μM, ATP 0.3 mM, PKA 75 nM",0.43±0.05
same,"maximum Po (Pomax), Michaelis-Menten fit",wild-type human CFTR [2]; in the presence of phloxine B 1 μM,0.72
same,interburst interval of ΔF508,ΔF508 CFTR,without altering
same,mean burst duration of ΔF508 CFTR Cl channels,ΔF508 CFTR,dramatically prolonging
same,increase of the Po of ΔF508,"ΔF508 CFTR; ATP 1.0 mM, PKA 75 nM",1.5 fold
same,effect on iodide efflux in the absence of cAMP agonists,[3]; 10 μM,without effect
same,effect on cAMP-stimulated iodide efflux,[3]; 10 μM with cAMP agonists,enhanced both the speed and magnitude
same,effect on KATP currents in pancreatic β-cells,KATP currents,inhibits KATP currents
O=C1OC2(c3ccccc31)c1cc(Br)c(O)c(Br)c1Oc1c2cc(Br)c(O)c1Br [eosin Y],"effect on CFTR Cl- currents (concentration-response, FIG. 3)",wild-type human CFTR [1]; -50 mV,stimulated and inhibited
same,effect on channel activity at positive voltages,wild-type human CFTR [1]; [5],channel activity is stimulated
same,effect on channel activity at negative voltages,wild-type human CFTR [1]; [5],inhibits channel activity
same,open probability (Po),wild-type human CFTR [2]; [6],0.43±0.02
"Nc1ncnc2c1ncn2[C@@H]1O[C@H](COP(=O)(O)OP(=O)(O)OP(=O)(O)O)[C@@H](O)[C@H]1O [ATP, reference compound]",EC50,"wild-type human CFTR [1]; PKA-phosphorylated channels, read-out: EC50 for activation of CFTR Cl- channels by intracellular ATP",300 µM
O=C1OC2(c3ccc(O)cc3Oc3cc(O)ccc32)c2c(Cl)c(Cl)c(Cl)c(Cl)c21 [tetrachlorofluorescein],"effect on CFTR Cl- currents (concentration-response, FIG. 3)",wild-type human CFTR [1]; -50 mV,only inhibited
O=C1OC2(c3cc(I)c(O)c(I)c3Oc3c2cc(I)c(O)c3I)c2c(Cl)c(Cl)c(Cl)c(Cl)c21 [bengal rose B],"effect on CFTR Cl- currents (concentration-response, FIG. 3)",wild-type human CFTR [1]; -50 mV,stimulated and inhibited
same,concentrations that stimulated CFTR Cl- currents,"wild-type human CFTR [1]; ATP 0.3 mM, PKA 75 nM, -50 mV",0.1 to 1.0 µM
same,concentration that maximally stimulated channel activity,wild-type human CFTR [1],1 µM
same,open probability (Po),wild-type human CFTR [2]; [6],0.40±0.08
O=C1OC2(c3ccc(O)cc3Oc3cc(O)ccc32)c2ccccc21 [fluorescein],"effect on CFTR Cl- currents (concentration-response, FIG. 3)",wild-type human CFTR [1]; -50 mV,only inhibited
"Nc1ncnc2c1ncn2[C@@H]1O[C@H](COP(=O)(O)OP(=O)(O)O)[C@@H](O)[C@H]1O [ADP, reference compound]",Po,"wild-type human CFTR [2]; ADP 0.3 mM alone, ATP 0.3 mM, PKA 75 nM",0.21±0.02
same,Po as % of the control value,"wild-type human CFTR [2]; ADP 0.3 mM, ATP 0.3 mM, PKA 75 nM",49±1%
"O=c1c(-c2ccc(O)cc2)coc2cc(O)cc(O)c12 [genistein, 5,7-dihydrox-3-(4-hydroxyphenyl)-4H-1-benzopyran-4-one]",concentration that maximally stimulated wild-type CFTR Cl- channels,[4],35 µM
